Results as given in paper PMC12257397, “Scaffold Hopping Strategy toward New 4‑Aminoquinazolines Active Against Extracellular and Intracellular Mycobacterium tuberculosis” (ACS Medicinal Chemistry Letters, 2025).
pIC50: −log10 of the molar value. Converted amounts (≈) assume the structure as drawn.

Assays:
M. tuberculosis H37Rv-LP = test system: M. tuberculosis H37Rv-LP; design: method as in PMID 35262374, PMID 29035551; conditions: given in Figure 1A; cited from earlier work
[1] = test system: M. tuberculosis H37Rv (Erdman); design: method as in PMID 31511370; conditions: given in Figure 1A; cited from earlier work
[2] = test system: M. tuberculosis qcrCAB (wt); design: method as in PMID 31511370; conditions: given in Figure 1A; cited from earlier work
[3] = test system: M. tuberculosis H37Rv (ATCC 27294); test: MIC by resazurin reduction microplate assay (REMA); format: cell-based; conditions: Mycobacterium tuberculosis, converted from μg/mL to μM
[4] = test system: M. tuberculosis H37Rv-LP (ATCC 25618); test: microbe, parasite or virus in culture; format: cell-based; conditions: Mycobacterium tuberculosis, 120 h, concentration inhibiting 90% of growth, 5 days, read-out: MIC parental wild-type strain H37Rv-LP
in vitro [5] = conditions: African green monkey
in vitro [6] = conditions: African green monkey; remark: listed apart in the source
in vitro [7] = conditions: human
[8] = test system: H37Rv-LP (ATCC 25618) inside THP-1 cells; test: microbe, parasite or virus in culture; format: cell-based; conditions: Mycobacterium tuberculosis, 72 hours; for pIC50: growth of H37Rv-LP inside THP-1 cells inhibited by 50%, read-out: Intracellular IC50; for IC90: growth of H37Rv-LP inside THP-1 cells inhibited by 90%, read-out: Intracellular IC90
[9] = test system: Staphylococcus aureus (ATCC 29213); test: Antimicrobial spectrum MIC, S. aureus; format: cell-based
Escherichia coli RFM 795 = test: Antimicrobial spectrum MIC, E. coli; format: cell-based; conditions: Escherichia coli RFM 795 (lptD mutation)
[10] = test system: Mycobacterium abscessus 103R; test: Antimicrobial spectrum MIC, M. abscessus; format: cell-based
[11] = test system: Mycobacterium avium 2285S (smooth); test: Antimicrobial spectrum MIC, M. avium smooth; format: cell-based
[12] = test system: Mycobacterium avium 2285R (rough); test: Antimicrobial spectrum MIC, M. avium rough; format: cell-based
[13] = test system: Mycobacterium smegmatis mc2155; format: cell-based
[14] = Microsomal stability, mouse liver microsomes (MLM); format: in vitro ADME; conditions: male, BALB/c, pH 7.4; for half-life at 6 μM: mouse liver microsomes, read-out: MLM t1/2
Description: (§1) 1.5. Microsomal stability
(§2) Test compound (6 μM) was incubated at 37 °C with male BALB/c mouse liver microsomes or mixed gender human liver microsomes (Xenotech LLC; 0.5 mg /mL, […] potassium phosphate buﬀer, pH 7.4) and the reaclon started with addilon of excess NADPH (2 mM, pH 7.4). Samples (35 µL) were removed at lme 0, 5, 10, 20, 30, and 60 min and mixed with 35 µL of acetonitrile, methanol, wate r s o l u lon (2:1:1) containing […] internal standard terfenadine and 0.05% v/v acelc acid. The samples were centrifuged at 4000 rpm for 10 min and the supernatant was analyzed using a 1100 HPLC and Single Quad 6120 (Agilent, USA). Compounds were tested in duplic ate, and an exponenlal decay curve ﬁt was used on the ralo of peak area of test compound to internal standard at each lme point to calculate the rate constant (k). The rate of intrinsic clearance (CLint) of each test compound was then calculated using the following equalon: CLint (mL/min/mg) = k x V where V was mL/mg protein. Verapamil (6 μM) was used as a posilve control. Incubalon of each compound with microsomes in the absence of NADPH and analyzed at 0 and 60 min was used as the negalve control.
(§3) The human biological samples were sourced ethically, and their research use was in accord with the terms of the informed consents.

[15] = Microsomal stability, human liver microsomes (HLM); format: in vitro ADME; conditions: both sexes, pH 7.4; for half-life at 6 μM: human liver microsomes, read-out: HLM t1/2
Description: as §1, §2, §3

[16] = test system: M. tuberculosis H37Rv-LP (ATCC 25618); test: ATP depletion assay (BacTiter-Glo); format: cell-based, Mycobacterium tuberculosis; conditions: compared to the positive control Q203
in vitro [17] = conditions: human; remark: listed apart in the source
in vitro [18] = conditions: human; remark: listed apart in the source

Row | Compound | MIC H37Rv-LP (M. tuberculosis H37Rv-LP) | MIC [3] | MIC [4] | CC50 at 72 h (in vitro [7]; CC50 HepG2+Gal) | CC50 at 72 h (in vitro [7]; CC50 HepG2+Glu) | pIC50 [8] | IC90 [8] | CIM 29213 [9] | CIM RFM 795 (Escherichia coli RFM 795) | CIM 103R [10] | CIM 2285S [11] | CIM 2285R [12] | CIM mc2155 [13] | microsomal CLint at 6 μM ([14]; mouse, microsomes) | half-life at 6 μM [14] | microsomal CLint at 6 μM ([15]; human, microsomes) | half-life at 6 μM [15] | CC50 at 72 h (in vitro [17]) | CC50 at 72 h (in vitro [18]) | further results
1 | FC(F)(F)c1ccc(CCNc2cc(-c3ccccn3)nc3ncnn23)cc1 [1 (TAP)] | 1.4 µM (≈ 0.538 µg/mL) | – | – | – | – | – | – | – | – | – | – | – | – | – | – | – | – | – | – | –
2 | CCc1nc2ccc(C)cc2n1CCCNc1ccccc1 [2 (FABA)] | 0.056 µM (≈ 0.0164 µg/mL) | – | – | – | – | – | – | – | – | – | – | – | – | – | – | – | – | – | – | –
3 | CCc1nc(NCCCc2ccccc2)c2cc(C)sc2n1 [3 (CWHM-1023)] | – | – | – | – | – | – | – | – | – | – | – | – | – | – | – | – | – | – | – | pIC50 [1]: 7.38; pIC50 [2]: 7.60
4 | Cc1nc(NCCc2ccccc2)c2cc(I)ccc2n1 [9d] | – | 3.2 µM (≈ 1.25 µg/mL) | 0.95 µM (≈ 0.37 µg/mL) | 5.1 µM | 10.9 µM | – | – | – | – | – | – | – | – | – | – | – | – | – | – | CC50 at 72 h (in vitro [5]): 11.7 µM; CC50 at 72 h (in vitro [6]): 11.7 µM
5 | Cc1nc(NCCCc2ccccc2)c2cc(Br)ccc2n1 [18c] | – | 0.45 µM (≈ 0.16 µg/mL) | 0.28 µM (≈ 0.0998 µg/mL) | 9.7 µM | 19.1 µM | 6.80 | 0.45 µM | > 100 µM | > 100 µM | > 100 µM | > 100 µM | > 100 µM | > 56.1 µM | 354 µL/min/mg | 3.9 min | 184 µL/min/mg | 7.5 min | 13.8 µM | 13.2 µM | remaining at 20 min, 6 μM ([14]; mouse, microsomes): 2%; remaining at 0.5 h, 6 μM ([15]; human, microsomes): 6%; ATP depletion profile [16]: none of the selected molecules produced a significant ATP depletion profile
6 | Cc1nc(NCCCc2ccccc2)c2cc(I)ccc2n1 [18d] | – | 1.6 µM (≈ 0.645 µg/mL) | 0.58 µM (≈ 0.234 µg/mL) | 13 µM | 20.3 µM | 6.33 | 1.2 µM | > 100 µM | > 100 µM | > 100 µM | > 100 µM | > 100 µM | > 12.4 µM | 202 µL/min/mg | 6.9 min | 243 µL/min/mg | 5.7 min | > 20 µM | 18.3 µM | remaining at 5 min, 6 μM ([14]; mouse, microsomes): 63%; remaining at 20 min, 6 μM ([15]; human, microsomes): 9%
